In patent publication US20190060384A1, “COMPOSITION FOR TREATMENT OR PREVENTION OF LUNG CANCER AND A METHOD THEREFORE” (priority 2017, published 2019):

Legend:
NCI-H520 tumor mass = experiment: NCI-H520 xenograft nude mice: tumor mass histopathology and immunohistochemistry; format: in vivo, athymic nude mice
From the text: (1) Anticancer effects: Changes in tumor volume, tumor weight, tumor cell volume in a formed mass, and apoptotic cell percentages, and changes in immunoreactivities of caspase-3, PARP, NT, 4-HNE, CD31, Ki-67, COX-2, iNOS, and TNF-α in the formed mass

[1] = male, ICR, mouse, in vivo, po, 28 days
From the text: (§1) Day 28; mortality, clinical symptoms, change in body weight, autopsy findings, hematological (14 items; Table 18) and hematochemical (20 items; Table 19) changes, histopathological changes (23 organs: brain cerebrum, cerebellum and bulbar, heart, thymus, lung, testis, epididymis, kidney, adrenal gland, spleen, liver, pancreas, alimentary tract esophagus, fundic portion, pyloric portion, duodenum, jejunum, ileum, cecum, colon and rectum, submandibular lymph node), and changes in content of liver lipid peroxidation and antioxidant defense system glutathione (GSH), and catalase (CAT) and superoxide dismutase (SOD) activities.

[2] = system: liver lipid peroxidation, GSH, CAT, SOD; settings: mouse, in vivo, po
From the text: as §1

[3] = system: NCI-H520 cell xenograft nude mice; experiment: NCI-H520 xenograft nude mice: immune organ weights and histopathology (spleen, submandibular lymph node); format: in vivo, athymic nude mice
[4] = system: NCI-H520 cell xenograft nude mice; experiment: NCI-H520 xenograft nude mice: serum IL-6 and IFN-γ contents; format: in vivo, athymic nude mice; settings: vs tumor xenograft control, 35 days
From the text: (3) Effects of suppressing tumor-related cachexia: Changes in body weight, periovarian fat pad weight, and serum IL-6 content and histological change in a periovarian fat pad

[5] = system: NCI-H520 cell xenograft nude mice; experiment: NCI-H520 xenograft nude mice: tumor-related cachexia (body weight, periovarian fat pad); format: in vivo, athymic nude mice
[6] = mouse, in vivo, po
From the text: as §1

[7] = mouse, in vivo, po; remark: listed apart in the source
From the text: as §1

[8] = tumor mass, oral once daily 35 days
[9] = NCI-H520 xenograft nude mice, oral once daily 35 days
[10] = vs tumor xenograft control, 35 days

With COc1cc2ncnc(Nc3ccc(F)c(Cl)c3)c2cc1OCCCN1CCOCC1 [Gefitinib, gefitinib] the “Immunoreactive cell percentages: 4-hydroxynonenal” value (NCI-H520 tumor mass; [8]) was 29.12 ± 8.55a %/tumor cells, the “Immunoreactive cell percentages: CD31” value (NCI-H520 tumor mass; [8]) was 29.90 ± 5.37a %/tumor cells and the “Immunoreactive cell percentages: Cleaved caspase-3” value (NCI-H520 tumor mass; [8]) was 25.77 ± 5.73d %/tumor cells. The “Immunoreactive cell percentages: Cyclooxygenase-2” value (NCI-H520 tumor mass; [8]) was 56.48 ± 12.30 %/tumor cells, the “Immunoreactive cell percentages: INOS” value (NCI-H520 tumor mass; [8]) was 5.34 ± 1.44 %/tumor cells and the “Immunoreactive cell percentages: Ki-67” value (NCI-H520 tumor mass; [8]) was 45.34 ± 7.63a %/tumor cells. The “Immunoreactive cell percentages: Nitrotyrosine” value (NCI-H520 tumor mass; [8]) was 32.93 ± 10.64d %/tumor cells, the “Immunoreactive cell percentages: PARP” value (NCI-H520 tumor mass; [8]) was 22.27 ± 10.20d %/tumor cells and the Tumor cell volume (NCI-H520 tumor mass; [8]) was 54.48 ± 12.96a %/mm2. The “change in proportion of the tumor tissue occupied by 4-HNE immunoreactive cells” value (NCI-H520 tumor mass; vs tumor xenograft control) was 928.20%, the “change in proportion of the tumor tissue occupied by CD31 immunoreactive cells” value (NCI-H520 tumor mass; vs tumor xenograft control) was −41.30% and the “change in proportion of the tumor tissue occupied by COX-2 immunoreactive cells” value (NCI-H520 tumor mass; vs tumor xenograft control) was 6.37%. For the same compound, the “change in proportion of the tumor tissue occupied by Ki-67 immunoreactive cells” value (NCI-H520 tumor mass; vs tumor xenograft control) was −41.57%, the “change in proportion of the tumor tissue occupied by NT immunoreactive cells” value (NCI-H520 tumor mass; vs tumor xenograft control) was 368.85% and the “change in proportion of the tumor tissue occupied by PARP immunoreactive cells” value (NCI-H520 tumor mass; vs tumor xenograft control) was 673.85%. For the same compound, the “change in proportion of the tumor tissue occupied by TNF-α immunoreactive cells” value (NCI-H520 tumor mass; vs tumor xenograft control) was 417.98%, the “change in proportion of the tumor tissue occupied by caspase-3 immunoreactive cells” value (NCI-H520 tumor mass; vs tumor xenograft control) was 364.72% and the “change in proportion of the tumor tissue occupied by iNOS immunoreactive cells” value (NCI-H520 tumor mass; vs tumor xenograft control) was −11.83%. For the same compound, the “change in proportion of the tumor tissue occupied by tumor cells” value (NCI-H520 tumor mass; vs tumor xenograft control) was −30.68%, the “Autopsy: Liver Discolorization” value [1] was 7/7 and the “Autopsy: Liver Discolorization 1+” value [1] was 0/7. For the same compound, the “Autopsy: Liver Discolorization 2+” value [1] was 1/7, the “Autopsy: Liver Discolorization 3+” value [1] was 6/7 and the “Autopsy: Liver Normal” value [1] was 0/7. The “Autopsy: Lung Congestion” value [1] was 2/7, the “Autopsy: Lung Congestion 1+” value [1] was 2/7 and the “Autopsy: Lung Normal” value [1] was 5/7. For the same compound, the “Autopsy: Lymph nodes Hypertrophy” value [1] was 7/7, the “Autopsy: Lymph nodes Hypertrophy 1+” value [1] was 0/7 and the “Autopsy: Lymph nodes Hypertrophy 2+” value [1] was 4/7. For the same compound, the “Autopsy: Lymph nodes Hypertrophy 3+” value [1] was 3/7, the “Autopsy: Lymph nodes Normal” value [1] was 0/7 and the “Autopsy: Others Normal” value [1] was 7/7. The “Autopsy: Spleen Hypertrophy” value [1] was 7/7, the “Autopsy: Spleen Hypertrophy 1+” value [1] was 0/7 and the “Autopsy: Spleen Hypertrophy 2+” value [1] was 4/7. The “Autopsy: Spleen Hypertrophy 3+” value [1] was 3/7, the “Autopsy: Spleen Normal” value [1] was 0/7 and the “change in SOD activity in the liver tissue” value [2] was −81.18%. The “change in content of GSH in the liver tissue” value [2] was −69.14%, the “change in liver lipid peroxidation” value [2] was 129.64% and the “Spleen Total thickness” value [3, 9] was 1097.00 ± 237.39a μm/central regions. The “Spleen White pulp diameters” value [3, 9] was 334.72 ± 47.47e μm/white pulp, the “Spleen White pulp numbers” value [3, 9] was 6.13 ± 1.81e /mm2 and the Spleen absolute weight [3, 9] was 0.059 ± 0.010a. For the same compound, the “Submandibular lymph node Cortex lymphoid cell follicle numbers” value [3, 9] was 7.50 ± 2.39a /mm2, the “Submandibular lymph node Cortex thickness” value [3, 9] was 155.92 ± 34.47a μm/lymph node and the “Submandibular lymph node Total thickness” value [3, 9] was 441.48 ± 114.06a μm/central regions. For the same compound, the “Submandibular lymph node absolute weight” value [3, 9] was 0.003 ± 0.001a, the “change in cortex lymphoid cell follicle numbers” value ([3]; vs tumor xenograft control) was 15.38% and the “change in submandibular lymph node total thickness” value ([3]; vs tumor xenograft control) was −8.92%. The “change in total splenic thickness” value ([3]; vs tumor xenograft control) was −1.17%, the “change in splenic absolute weight” value [3, 10] was −1.46% and the “change in submandibular lymph node absolute weight” value [3, 10] was 4.00%. For the same compound, the “change in serum IFN-γ content” value [4] was −0.62%, the “change in serum IL-6 content” value [4] was 2.09% and the Body weight gains ([5]; NCI-H520 xenograft nude mice, 35 days, based on actual body weight) was −0.40 ± 1.01ac g. For the same compound, the “Body weights At first administration” value ([5]; NCI-H520 xenograft nude mice, baseline) was 18.15 ± 1.42 g, the “Actual body weights (excluding tumor weight)” value [5, 9] was 17.75 ± 1.11ac g and the “Body weights At sacrifice” value [5, 9] was 19.08 ± 1.14ac g. The “Periovarian fat pad White adipocyte diameters” value [5, 9] was 13.52 ± 3.46 μm, the “Periovarian fat pad absolute weight” value [5, 9] was 0.008 ± 0.002e and the “change in accumulated periovarian fat pad thickness” value ([5]; vs tumor xenograft control) was −11.13%. For the same compound, the “change in average periovarian white fat pad cell diameter” value ([5]; vs tumor xenograft control) was 4.41%, the “change in periovarian fat pad absolute weight” value [5, 10] was −1.52% and the “change in actual body weight excluding the tumor weight” value ([5]; vs tumor xenograft control, final sacrifice date) was −8.18%. It also gave an ALB [6] of 1.39 ± 0.25a g/dL, an ALP [6] of 107.00 ± 22.41 IU/L and an ALT [6] of 215.00 ± 33.87d IU/L. For the same compound, the AST [6] was 29.014 ± 23.57d IU/L, the BIL [6] was 0.14 ± 0.05 mg/dL and the BUN [6] was 18.19 ± 0.89 mg/dL. The CRE [6] was 0.39 ± 0.18 mg/dL, the GLU [6] was 92.43 ± 7.93 mg/dL and the Globulin [6] was 3.73 ± 0.39a g/dL. For the same compound, the K [6] was 9.97 ± 0.25 mmol/L, the PRO [6] was 5.11 ± 0.19 g/dL and the TG [6] was 195.71 ± 47.00 mg/dL. The BASO [7] was 1.11 ± 0.21%.
